In article PMC9687900, “Design, Synthesis, Kinetic Analysis and Pharmacophore-Directed Discovery of 3-Ethylaniline Hybrid Imino-Thiazolidinone as Potential Inhibitor of Carbonic Anhydrase II: An Emerging Biological Target for Treatment of Cancer” (Biomolecules, 2022):

Experiments:
[1] = target: carbonic anhydrase II (CA-II) (Bos taurus, UniProt P00921); experiment: Carbonic anhydrase assay (p-nitrophenyl acetate hydrolysis); type: biochemical, bovine; conditions: for IC50: bovine enzyme, mean ± SEM
carbonic anhydrase II (CA-II), sequence (P00921 whole entry): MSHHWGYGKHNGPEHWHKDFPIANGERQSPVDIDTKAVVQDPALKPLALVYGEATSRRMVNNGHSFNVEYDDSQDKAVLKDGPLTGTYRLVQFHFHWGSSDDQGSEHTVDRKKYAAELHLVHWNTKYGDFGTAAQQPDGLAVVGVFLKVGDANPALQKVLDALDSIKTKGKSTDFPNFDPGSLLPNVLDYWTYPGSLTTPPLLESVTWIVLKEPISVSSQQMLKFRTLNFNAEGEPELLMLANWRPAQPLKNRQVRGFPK
Experimental: As mentioned previously, the inhibition of carbonic anhydrase was investigated with adjustments. The method relies on the fact that carbonic anhydrase hydrolyzes p-nitrophenyl acetate into yellow-colored p-nitrophenol, which is then quantified spectrophotometrically. Each well contained 120 µL of a 50 mM Tris-sulfate buffer (pH 7.6, containing 0.1 mM ZnCl2), 20 µL of an inhibitor, and 20 µL of bovine enzyme (50 U). The materials were properly mixed and incubated for 10 min at 25 degrees Celsius. The substrate p-nitrophenyl acetate was synthesized (6 mM stock using <5% acetonitrile in buffer and used fresh each time) and 40 µL was added per well to achieve a concentration of […] per well. The total volume of the reaction was 200 µL. […] Each concentration was assessed in three distinct tests. The IC50 values were calculated with GraphPad Prism 5.0 [38] and nonlinear regression (GraphPad, San Diego, CA USA). (2) Inhibition (%)=B−S/B×100
Here, B and S represent the absorbances of the blank and sample, respectively.

carbonic anhydrase = carbonic anhydrase (Bos taurus, UniProt P00921); experiment: Kinetic analysis of carbonic anhydrase inhibition (Lineweaver–Burk plots); type: biochemical, bovine
carbonic anhydrase, sequence (P00921 whole entry): as above
From the text: Based on the IC50 values, the most efficacious carbonic anhydrase inhibitor, compound 6e, was designated for kinetic investigation. Lineweaver-–Burk plots and a second plot are depicted in (Figure 3A,B). At various concentrations of the inhibitor and substrate, Lineweaver–Burk plots (plot of 1/V vs. 1/[S]) were generated to determine the kind of inhibition. […] The EI dissociation constant was shown by the second plot (Figure 3B) of the slope vs. the concentration of 6e.
To investigate the kinetic properties of compound 6e, identical experiments to those described in previous study were performed. The compound 6e was selected based on its IC50 value at various concentrations (0.00, 0.78, 1.55, and 3.11 µM, respectively), whereas the substrate concentrations (p-nitrophenyl acetate) were varied from (2, 1, 0.5, 0.25 and 0.125 mM). Other experimental settings mirrored those mentioned in the section under “Carbonic anhydrase assay”. The maximum starting velocity was estimated using the first linear section of absorbance up to 10 min at 1 min intervals. To evaluate the kind of enzyme inhibition, Lineweaver–Burk plots depicting the inverse of velocities (1/V) vs. the inverse of substrate concentration (1/[S] mM^−1) were utilized. […] Version 11 of Microsoft Excel was used to create graphs.

CCOC(=O)C=C1SC(=NC(=O)c2ccccc2C)N(c2cccc(CC)c2)C1=O [Compound 6a]
IC50 [1]: 1.66 ± 0.095 µM
melting point: 235 to 237 °C

CCOC(=O)/C=C1\S/C(=N\C(=O)c2ccc(Cl)cc2Cl)N(c2cccc(CC)c2)C1=O [Compound 6b]
IC50 [1]: 67.5 ± 2.71 µM
melting point: 235 to 237 °C

CCOC(=O)/C=C1\S/C(=N\C(=O)c2ccccc2Br)N(c2cccc(CC)c2)C1=O [Compound 6c]
IC50 [1]: 60.1 ± 1.92 µM
melting point: 235 to 237 °C

CCOC(=O)/C=C1\S/C(=N\C(=O)c2ccc(C)cc2)N(c2cccc(CC)c2)C1=O [Compound 6d]
IC50 [1]: 6.5 ± 0.854 µM
melting point: 235 to 237 °C

CCOC(=O)/C=C1\S/C(=N\C(=O)c2cccc(C)c2)N(c2cccc(CC)c2)C1=O [Compound 6e]
IC50 [1]: 1.54 ± 0.016 µM
melting point: 235 to 237 °C
kind of inhibition (carbonic anhydrase; Lineweaver–Burk plots): competitive mechanism
Ki (carbonic anhydrase; from slope vs. concentration of 6e, substrate p-nitrophenyl acetate, read-out: Ki (EI dissociation constant)): 2.2 µM

CCOC(=O)/C=C1\S/C(=N\C(=O)c2ccccc2)N(c2cccc(CC)c2)C1=O [Compound 6f]
IC50 [1]: 9.52 ± 1.08 µM
melting point: 235 to 237 °C

CCOC(=O)/C=C1\S/C(=N\C(=O)c2cccc(Cl)c2)N(c2cccc(CC)c2)C1=O [Compound 6g]
IC50 [1]: 1.78 ± 0.095 µM
melting point: 235 to 237 °C

CCOC(=O)/C=C1\S/C(=N\C(=O)c2ccccc2F)N(c2cccc(CC)c2)C1=O [Compound 6h]
IC50 [1]: 11 ± 1.28 µM
melting point: 235 to 237 °C

CCOC(=O)/C=C1\S/C(=N\C(=O)c2ccccc2Cl)N(c2cccc(CC)c2)C1=O [Compound 6i]
IC50 [1]: 5.03 ± 0.659 µM
activity reduced, fold, in comparison to the inhibitory value of derivative 6g ([1]; relative to 6g): approximately 2.9 fold
melting point: 235 to 237 °C

CCOC(=O)/C=C1\S/C(=N\C(=O)c2ccc(F)cc2)N(c2cccc(CC)c2)C1=O [Compound 6j]
IC50 [1]: 4.45 ± 0.329 µM
melting point: 235 to 237 °C
